Test results as given in patent US9670170B2, “Resorufin derivatives for treatment of oxidative stress disorders” (BioElectron Technology Corporation, priority 2013, dated 2017).
pEC50: −log10 of the molar value.

Each compound was assayed on FRDA fibroblasts (assay: Rescue of BSO-stressed human dermal fibroblasts from Friedreich's Ataxia patients (Calcein AM viability)). Conditions: Homo sapiens, GM04078, 48 h, read-out: Ec50 Average.
Assay type: cell-based
Experimental: An initial screen was performed to identify compounds effective for the amelioration of redox disorders. Test samples, 4 reference compounds (idebenone, decylubiquinone, Trolox and alpha-tocopherol), and solvent controls were tested for their ability to rescue FRDA fibroblasts stressed by addition of L-buthionine-(S,R)-sulfoximine (BSO), as described in Jauslin et al., Hum. Mol. Genet. 11(24):3055 (2002), Jauslin et al., FASEB J. 17:1972-4 (2003), and International Patent Application WO 2004/003565. […] This specific BSO-mediated cell death can be prevented by administration of antioxidants or molecules involved in the antioxidant pathway, such as alpha-tocopherol, selenium, or small molecule glutathione peroxidase mimetics. However, antioxidants differ in their potency, i.e. the concentration at which they are able to rescue BSO-stressed FRDA fibroblasts.
MEM (a medium enriched in amino acids and vitamins, catalog no. 1-31F24-I) and Medium 199 (M199, catalog no. 1-21F22-I) with Earle's Balanced Salts, without phenol red, were purchased from Bioconcept. Fetal Calf Serum was obtained from PAA Laboratories. Basic fibroblast growth factor and epidermal growth factor were purchased from PeproTech. Penicillin-streptomycin-glutamine mix, L-buthionine (S,R)-sulfoximine, (+)-alpha-tocopherol, decylubiquinone, and insulin from bovine pancreas were purchased from Sigma. Trolox (6-Hydroxy-2,5,7,8-tetramethylchromane-2-carboxylic acid) was obtained from Fluka. Idebenone was obtained from Chemo Iberica. Calcein AM was purchased from Anaspec. Cell culture medium was made by combining 125 ml M199 EBS, 50 ml Fetal Calf Serum, 100 U/ml penicillin, 100 microgram/ml streptomycin, 2 mM glutamine, 10 microgram/ml insulin, 10 ng/ml EGF, and 10 ng/ml bFGF; MEM EBS was added to make the volume up to 500 ml. A 10 mM BSO solution was prepared by dissolving 444 mg BSO in 200 ml of medium (Invitrogen, Carlsbad, Ca.) with subsequent filter-sterilization. During the course of the experiments, this solution was stored at +4° C. The cells were obtained from the Coriell Cell Repositories (Camden, N.J.; repository number GM04078) and grown in 10 cm tissue culture plates. Every third day, they were split at a 1:3 ratio.
The test samples were supplied in 1.5 ml glass vials. The compounds were diluted with DMSO, ethanol or PBS to result in a 5 mM stock solution. Once dissolved, they were stored at −20° C. Reference antioxidants (idebenone, decylubiquinone, alpha-tocopherol and Trolox) were dissolved in DMSO.
Test samples were screened according to the following protocol:
A culture with FRDA fibroblasts was started from a 1 ml vial with approximately 500,000 cells stored in liquid nitrogen. Cells were propagated in 10 cm cell culture dishes by splitting every third day in a ratio of 1:3 until nine plates were available. Once confluent, fibroblasts were harvested. For 54 micro titer plates (96 well-MTP) a total of 14.3 million cells (passage eight) were re-suspended in 480 ml medium, corresponding to 100 microliters medium with 3,000 cells/well. The remaining cells were distributed in 10 cm cell culture plates (500,000 cells/plate) for propagation. The plates were incubated overnight at 37° C. in a atmosphere with 95% humidity and 5% CO2 to allow attachment of the cells to the culture plate.
10% DMSO (242.5 microliters) was added to a well of the microtiter plate. The test compounds were unfrozen, and 7.5 microliters of a 5 mM stock solution was dissolved in the well containing 242.5 microliters of 10% DMSO, resulting in a 150 micromolar master solution. Serial dilutions from the master solution were made. The period between the single dilution steps was kept as short as possible (generally less than 30 seconds). At least 4 hours after attachment into MTP, cells were then treated with the various compound dilutions.
Plates were kept overnight in the cell culture incubator. […]

In order of rising pEC50:
1. O=c1ccc2nc3ccc(O)cc3oc-2c1 [Compound 4]  7.08
2. O=c1ccc2nc3ccc(OCc4ccccc4)cc3oc-2c1 [Compound 1]  9.00
3. COc1ccc2nc3ccc(=O)cc-3oc2c1 [Compound 3]  9.00
4. CCOc1ccc2nc3ccc(=O)cc-3oc2c1 [Compound 5]  9.10

Same assay, conditions: Homo sapiens; compounds of the invention; FRDA fibroblasts (GM04078), 1 mM BSO, 48 h; tested three times; read-out: Ec50 Average

In order of falling pEC50:
1. COc1c2nc3ccc(C)cc3oc-2c(C)c(=O)c1OC [Compound 6]  8.70
2. COCCN(C)C(=O)c1ccc2nc3c(C)c(C)c(=O)c(C)c-3oc2c1 [Compound 7]  8.70
3. Cc1c2nc3ccc(C(=O)NCCN4CCOCC4)cc3oc-2c(C)c(=O)c1C [Compound 8]  8.52
4. Cc1ccc2nc3c(C)c(C)c(=O)c(C)c-3oc2c1C [Compound 9]  8.40
5. Cc1ccc2nc3c(C)c(C)c(=O)c(C)c-3oc2c1 [Compound 11]  8.30
6. Cc1c2nc3ccc(C(=O)NCCCO)cc3oc-2c(C)c(=O)c1C [Compound 10]  8.30
7. COCCNC(=O)c1ccc2nc3c(C)c(C)c(=O)c(C)c-3oc2c1 [Compound 12]  8.22
8. COc1ccc2nc3c(OC)c(OC)c(=O)c(C)c-3oc2c1 [Compound 13]  7.92
9. O=c1ccc2nc3ccc(O[C@@H]4O[C@H](CO)[C@H](O)[C@H](O)[C@H]4O)cc3oc-2c1 [Compound 14]  7.80
10. COCCOCCOCCOCCNC(=O)c1ccc2nc3c(C)c(C)c(=O)c(C)c-3oc2c1 [Compound 15]  7.77
11. Cc1c2nc3ccc(C(F)(F)F)cc3oc-2c(C)c(=O)c1C [Compound 17]  7.64
12. Cc1c2nc3ccc(C(=O)NCCc4ccccc4)cc3oc-2c(C)c(=O)c1C [Compound 19]  7.60
13. Cc1cc(C)c2nc3c(C)c(C)c(=O)c(C)c-3oc2c1 [Compound 20]  7.59
14. COC(=O)c1ccc2nc3c(C)c(C)c(=O)c(C)c-3oc2c1 [Compound 21]  7.30
15. Cc1c2nc3cc(C(F)(F)F)ccc3oc-2c(C)c(=O)c1C [Compound 22]  7.27
16. Cc1cc2oc3c(C)c(=O)c(C)c(C)c-3nc2cc1S(C)(=O)=O [Compound 23]  6.63

Same assay, conditions: control compounds; FRDA fibroblasts (GM04078), 1 mM BSO, 48 h; average of three values; read-out: EC50 Average

`Cc1c(C)c2c(c(C)c1O)CC[C@@](C)(CCC[C@H](C)CCC[C@H](C)CCCC(C)C)O2` [alpha-tocopherol, reference compound] gave a pEC50 of 6.52.

Same assay, conditions: control compounds; FRDA fibroblasts (GM04078), 1 mM BSO, 48 h; first of three experiments; read-out: EC50 Value 1

In the case of `Cc1c(C)c2c(c(C)c1O)CC[C@@](C)(CCC[C@H](C)CCC[C@H](C)CCCC(C)C)O2` [alpha-tocopherol, reference compound], the pEC50 was 6.40.

Same assay, conditions: control compounds; FRDA fibroblasts (GM04078), 1 mM BSO, 48 h; second of three experiments; read-out: EC50 Value 2

In the case of `Cc1c(C)c2c(c(C)c1O)CC[C@@](C)(CCC[C@H](C)CCC[C@H](C)CCCC(C)C)O2` [alpha-tocopherol, reference compound], the pEC50 was 6.82.

Same assay, conditions: control compounds; FRDA fibroblasts (GM04078), 1 mM BSO, 48 h; third of three experiments; read-out: EC50 Value 3

`Cc1c(C)c2c(c(C)c1O)CC[C@@](C)(CCC[C@H](C)CCC[C@H](C)CCCC(C)C)O2` [alpha-tocopherol, reference compound] gave a pEC50 of 6.46.
